According to publication PMC9814779, “A triple farnesoid X receptor and peroxisome proliferator-activated receptor α/δ activator reverses hepatic fibrosis in diet-induced NASH in mice” (Communications Chemistry, 2020):

Legend:
[1] = biological target: T1, human PPARα ligand-binding domain (Gal4 chimera) (Homo sapiens, UniProt Q07869); assay: Gal4 hybrid reporter gene assay, PPARα; assay type: cell-based; parameters: Emax: dose or concentration left out as unconfirmed
T1 construct: coding for the hinge region and LBD of the canonical isoform of the respective nuclear receptor; expressed in transfected cells; host or cells: HEK293T
T1 sequence (Q07869 239-466 limits assumed): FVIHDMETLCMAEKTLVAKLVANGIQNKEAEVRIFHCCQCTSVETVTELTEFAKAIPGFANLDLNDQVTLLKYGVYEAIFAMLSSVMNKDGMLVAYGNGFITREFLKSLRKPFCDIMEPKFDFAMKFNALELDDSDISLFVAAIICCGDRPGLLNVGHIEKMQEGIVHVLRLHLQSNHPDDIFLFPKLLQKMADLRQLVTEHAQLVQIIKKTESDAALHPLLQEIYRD

[2] = biological target: T2, human FXR:retinoid X receptor (RXR) heterodimer (Homo sapiens, UniProt Q96RI1); assay: Full-length FXR reporter gene assay (BSEP response element) in HeLa cells; assay type: cell-based; parameters: Emax: dose or concentration left out as unconfirmed
T2 construct: pcDNA3-hFXR[32] and pSG5-hRXR[33] served for receptor overexpression in the full-length FXR assay; expressed in transfected cells; host or cells: HeLa

[3] = tested on: human full-length PPAR response element (PPRE) reporter; assay: Full-length PPAR response element (PPRE) reporter gene assay in HEK293T cells; assay type: cell-based; conditions: HEK-293T, mean ± SEM, n = 3
Text: For the hybrid reporter gene assays, the previously reported Gal4-fusion receptor plasmids pFA-CMV-hPPARα-LBD[29], pFA-CMV-hPPARδ-LBD[29], pFA-CMV-hPPARγ-LBD[29], pFA-CMV-hLXRα-LBD[30], pFA-CMV-hLXRβ-LBD[30], pFA-CMV-hRXRα-LBD[31], pFA-CMV-hRXRβ-LBD[31], pFA-CMV-hRXRγ-LBD[31], pFA-CMV-hRARα-LBD[31], pFA-CMV-hRARβ-LBD[31], pFA-CMV-hRARγ-LBD[31], pFA-CMV-hVDR-LBD[31], and pFA-CMV-hCAR-LBD[31] coding for the hinge region and LBD of the canonical isoform of the respective nuclear receptor were used. pFR-Luc (Stratagene) was used as reporter plasmid for Gal4 hybrid reporter gene assays. pcDNA3-hFXR[32] and pSG5-hRXR[33] served for receptor overexpression in the full-length FXR assay and pGL3basic (Promega Corporation, Fitchburg, WI, USA) with a shortened construct of the BSEP promoter cloned into the SacI/NheI cleavage site in front of the luciferase gene[34] was used as reporter. PPRE-pGL3[35] contains the human full-length PPRE (cloned into the SacI/NheI cleavage site in front of the luciferase gene) and was used as reporter plasmid for the full-length PPRE reporter gene assay. pRL-SV40 (Promega) was used in all assays for normalization of transfection efficiency and cell growth.
Before transfection, medium was changed to Opti-MEM without supplements. […] Luminescence was measured with a Spark 10 M luminometer (Tecan Deutschland GmbH). […]

[4] = tested on: FXR- and PPAR-regulated genes in mouse liver; assay: Pilot animal experiment: hepatic FXR- and PPAR-regulated mRNA expression; assay type: in vivo, mice; conditions: single oral dose 10 mg/kg
Method: Nine male RjOrl:Swiss (CD-1) mice (38–41 g body weight, purchased from Janvier Labs, France) were used for the pilot in vivo study. […] Food and water were available ad libitum. The in-life phase was performed by the contract research organization Pharmacelsus (Saarbrücken, Germany). All experimental procedures were approved by and conducted in accordance with the regulations of the local Animal Welfare authorities (Landesamt für Gesundheit und Verbraucherschutz, Abteilung Lebensmittel- und Veterinärwesen, Saarbrücken). Six animals received a single oral dose of 10 mg/kg body weight of 41, and three animals received the vehicle. Water containing 1% hydroxypropyl methylcellulose (HPMC)/Tween 80 (99:1) served as vehicle.
Twelve or 18 hours after test compound application, mice were anesthetized under isoflurane and then sacrificed by cervical dislocation for tissue collection. Complete livers were obtained, immediately snap-frozen, and stored at −80 °C until further evaluation.
Liver tissue samples from mice were used to study the mRNA expression of FXR- and PPAR-regulated genes. To homogenize the tissue samples for qRT-PCR analysis, one-third of each liver was placed on a Falcon Cell Strainer with 40-μm pore size (BD Bioscience, Erembodegem, Belgium) in a 50-mL Falcon tube. Every tissue was rinsed with PBS buffer containing 10% FCS, penicillin (100 U/mL), and streptomycin (100 μg/mL) and pressed through the cell strainer until 5 mL cell suspension had been collected. The samples were centrifuged at 1200 rpm for 10 min at 4 °C. […] Two micrograms per sample of the extracted RNA were reverse-transcribed into cDNA using the High-Capacity cDNA Reverse Transcription Kit (4368814, Thermo Fischer Scientific, Inc.) according to the manufacturer’s protocol. mRNA expression was studied by quantitative real-time PCR analysis with a StepOnePlus System (Applied Biosystems) based on the 2^−ΔCT method (Supplementary Fig. 6) or the 2^−ΔΔCT method (Fig. 6) using Power SYBR Green PCR Master Mix (Life Technologies). […]

T2 sequence (P19793 whole entry): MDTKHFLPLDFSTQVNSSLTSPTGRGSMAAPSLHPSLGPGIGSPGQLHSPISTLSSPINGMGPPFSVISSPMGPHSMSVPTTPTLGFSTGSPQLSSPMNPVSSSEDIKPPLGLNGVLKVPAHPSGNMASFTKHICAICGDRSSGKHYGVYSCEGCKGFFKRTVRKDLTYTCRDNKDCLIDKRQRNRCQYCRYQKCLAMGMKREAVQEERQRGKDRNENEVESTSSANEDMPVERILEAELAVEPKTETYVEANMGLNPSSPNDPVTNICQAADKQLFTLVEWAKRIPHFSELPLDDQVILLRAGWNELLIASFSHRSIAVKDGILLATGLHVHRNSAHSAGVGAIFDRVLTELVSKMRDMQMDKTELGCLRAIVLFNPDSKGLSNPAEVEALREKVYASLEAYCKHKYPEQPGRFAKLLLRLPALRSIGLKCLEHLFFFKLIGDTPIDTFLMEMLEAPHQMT
T2 sequence (Q96RI1 whole entry): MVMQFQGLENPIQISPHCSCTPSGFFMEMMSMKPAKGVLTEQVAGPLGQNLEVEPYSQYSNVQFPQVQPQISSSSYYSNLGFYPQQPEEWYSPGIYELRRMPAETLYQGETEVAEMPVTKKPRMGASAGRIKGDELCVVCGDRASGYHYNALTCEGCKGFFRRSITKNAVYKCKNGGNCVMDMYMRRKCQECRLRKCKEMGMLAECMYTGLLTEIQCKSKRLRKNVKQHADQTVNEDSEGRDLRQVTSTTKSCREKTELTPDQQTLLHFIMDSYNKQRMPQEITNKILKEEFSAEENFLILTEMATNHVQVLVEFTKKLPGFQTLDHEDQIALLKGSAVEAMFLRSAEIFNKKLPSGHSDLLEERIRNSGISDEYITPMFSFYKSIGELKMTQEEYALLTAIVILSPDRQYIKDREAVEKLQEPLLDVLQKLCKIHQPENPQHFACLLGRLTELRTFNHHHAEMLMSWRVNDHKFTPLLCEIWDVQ

## CC(C)(C)c1ccc(C(=O)Nc2cccc(CCC(=O)O)c2)c(NC(=O)c2ccc(-c3ccco3)cc2)c1 [compound 41, 3-(3-[4-{tert-Butyl}-2-{4-(2-furyl)}benzamido]phenyl)propanoic acid]
[1]; EC50 [μM] PPARα, HEK293T, mean ± SEM, n = 3
  EC50: 0.17 ± 0.04 µM
[1]; PPARα EC50, as stated in text
  EC50: 0.168 µM
[1]; read-out: max. rel. act. PPARα
  Emax: 72%
[2]; HeLa, read-out: max. rel. act. FXR
  Emax: 19%
[2]; HeLa, mean ± SEM, n = 3, read-out: EC50 [μM] FXR
  EC50: 0.015 ± 0.002 µM
[2]; reporter gene assay and mRNA expression levels
  FXR activation efficacy compared to OCA: approximately 1/5
[3]
  EC50: 170 nM
[4]
  adverse effects, behaviour: no adverse effects
[4]; 12 h after treatment, vs. vehicle
  hepatic expression of BSEP, SHP, LPL, PCK and CRAT, 12 h: increased
[4]; after 18 h
  effect on FXR- and PPAR-regulated gene expression in livers, 18 h: significantly reduced
